Experimental data published in patent US20110034413A1, “NOVEL QUERCETIN DERIVATIVES AS ANTI-CANCER AGENTS” (priority 2007, published 2011).
Values after ≈ are worked out from the molar mass of the structure shown.

What was measured:
[1] = system: A 549 (Lung) cancer cells; experiment: Colorimetric MTT conversion assay, A 549; assay type: cell-based; settings: Homo sapiens, A549, 72 h exposure, 10 μM to 100 μM
Description: (§1) The anticancer potential of the novel Quercetin derivatives of formula (I) were evaluated and subsequently compared with Quercetin (II). The anticancer potential was determined by the colorimetric MTT conversion assay of Mossman. Human cancer cells representing ovary (PA-1; SK-OV-3); prostate (DU 145); lung (A-549) and normal fibroblast (NIH-3T3) were separately seeded at density of 1000 cells/well into 96 well plates in 180 μl of culture medium with 10% fetal calf serum. After 24 h, cells were incubated with different concentrations of the novel Quercetin derivatives ranging from 10 μM to 100 μM with relevant controls at 37° C. in a CO2 incubator in triplicate wells. The exposure medium (Quercetin derivatives in culture medium) of all the cells was refreshed after every 24 h. Cells were incubated with the derivatives for total of 72 h. The assay was terminated by the addition of 20 μl, of MTT solution (5 mg/ml) in each well and percentage cytotoxicity was calculated as given below. The IC50 values were determined by nonlinear regression using Prism software v 4.01.
(§2) Percentage Cytotoxicity=100×[1−(X/R1)], where X=absorbance of treated sample at 540 nm

[2] = system: NIH 3T3 (Normal) fibroblast; experiment: Colorimetric MTT conversion assay, NIH 3T3; assay type: cell-based; settings: Mus musculus, NIH3T3, 72 h exposure, 10 μM to 100 μM
Description: as §1, §2

[3] = system: SKOV3 (Ovary) cancer cells; experiment: Colorimetric MTT conversion assay, SKOV3; assay type: cell-based; settings: Homo sapiens, SK-OV-3, 72 h exposure, 10 μM to 100 μM
Description: as §1, §2

[4] = system: DU 145 (Prostate) cancer cells; experiment: Colorimetric MTT conversion assay, DU 145; assay type: cell-based; settings: Homo sapiens, 72 h exposure, 10 μM to 100 μM
Description: as §1, §2

[5] = Aqueous solubility by UV spectrophotometry (500 μM solutions in aqueous media from DMSO stock); assay type: physicochemical; settings: for solubility: kinetic from dmso stock, aqueous media, 500 μM solution prepared from DMSO stock, UV OD at λmax; for Aqueous solubility compared with Quercetin (II) / QC-12 (IV), in words: comparison drawn from Table-II
Description: The aqueous solubility of the novel Quercetin derivatives of formula (I) were determined and subsequently compared with QC 12. 500 μM solutions of the various novel Quercetin derivatives were prepared in aqueous media from DMSO stock solution. The samples were scanned in UV spectrophotometer at its λmax to obtain optical density (O.D) of the compound. Concentration against the OD value was obtained by calibration curve constructed by plotting the Optical density Vs concentration of calibration standards of the compounds.
Calibration standards were prepared by diluting the stock solution of the compound further in suitable solvents ensuring the overall compound solubility. Calibration standard of concentration 500 μM, 200 μM, 50 μM, 12.5 μM and 3.13 μM were prepared. These calibration standards were scanned in UV spectrophotometer at its highest wavelength (λmax) to obtain the optical density values (OD). A standard curve was constructed by plotting the Optical density Vs concentration.

[6] = system: PA-1 (Ovary) cancer cells; experiment: Colorimetric MTT conversion assay, PA-1; assay type: cell-based; settings: Homo sapiens, 72 h exposure, 10 μM to 100 μM
Description: as §1, §2

[7] = Plasma stability (half-life in plasma, 100 μM, 37° C., liquid chromatography); assay type: in vitro ADME; settings: plasma spiked at 100 μM, incubated at 37° C.
Description: The Plasma stability of the novel Quercetin derivatives of formula (I) were evaluated by determining their half-life in plasma and subsequently compared with QC-12 (IV). Plasma samples of concentration 100 μM spiked with the compounds were incubated at 37° C. and at specified time point the samples were quenched using chilled acetonitrile. Samples were then analyzed using liquid chromatography to determine the concentration at respective time point. Half-life was calculated from the logarithmic curve drawn between time and concentration.

[8] = system: different Cancer Cell Lines; experiment: Colorimetric MTT conversion assay, overall comparison over the cell line panel; assay type: cell-based, Human; settings: comparison drawn from Table-IV
Description: as §1, §2

SMILES | IC50 [1] [µM] | IC50 [2] [µM] | IC50 [3] [µM] | IC50 [4] [µM] | solubility [5] [µM] | IC50 [6] [µM] | half-life at 100 μM [7] [min] | Cytotoxic potential compared with Quercetin (II), in words [8] | Aqueous solubility compared with Quercetin (II) / QC-12 (IV), in words [5]
O=c1c(O)c(-c2ccc(O)c(O)c2)oc2cc(O)cc(O)c12 [Quercetin (II), 2-(3,4-Dihydroxyphenyl)-3,5,7-trihydroxy-4H-1-benzopyran-4-one, reference compound] | 83.7 | 68.7 | 88.4 | > 100 | 4.02 (≈ 1.22 µg/mL) | 35.3 |  |  | 
CCCC(=O)OCOc1cc(-c2oc3cc(OCc4ccccc4)cc(O)c3c(=O)c2OCc2ccccc2)ccc1OCc1ccccc1 [Compound No. 13, (2-(Benzyloxy)-5-(3,7-bis(benzyloxy)-5-hydroxy-4-oxo-4H-chromen-2-yl)phenoxy)methyl butyrate] | > 100 | > 100 | > 100 | > 100 | < 3.13 | > 100 |  |  | 
O=C(O)CNC(=O)Oc1cc(-c2oc3cc(O)cc(O)c3c(=O)c2O)ccc1O [QC-12 (IV), reference compound] |  |  |  |  | > 200 |  | 43.9 |  | 
CC(C)(C)C(=O)OCOc1cc(-c2oc3cc(OCc4ccccc4)cc(O)c3c(=O)c2OCc2ccccc2)ccc1OCc1ccccc1 [Compound No. 1, (2-(Benzyloxy)-5-(3,7-bis(benzyloxy)-5-hydroxy-4-oxo-4H-chromen-2-yl)phenoxy)methyl pivalate] |  | > 100 | > 100 | > 100 | 1.48 (≈ 1.02 µg/mL) | > 100 |  |  | 
CC(=O)OCOc1cc(-c2oc3cc(O)cc(O)c3c(=O)c2O)ccc1O [Compound No. 8, (2-hydroxy-5-(3,5,7-trihydroxy-4-oxo-4H-chromen-2-yl)phenoxy)methyl acetate] |  | > 100 | > 100 | > 100 | 16.5 | 19.4 | < 3 | better cytotoxic potential than Quercetin (II) | better solubility than Quercetin (II)
CC(C)(C)C(=O)OCOc1cc(-c2oc3cc(O)cc(O)c3c(=O)c2O)ccc1O [Compound No. 7, (2-hydroxy-5-(3,5,7-trihydroxy-4-oxo-4H-chromen-2-yl)phenoxy)methyl pivalate] |  | > 100 | > 100 | 83.1 | 30.6 (≈ 12.7 µg/mL) | 20.9 | 6.24 | better cytotoxic potential than Quercetin (II) | better solubility than Quercetin (II)
CCCC(=O)OCOc1cc(-c2oc3cc(O)cc(O)c3c(=O)c2O)ccc1O [Compound No. 14, (2-hydroxy-5-(3,5,7-trihydroxy-4-oxo-4H-chromen-2-yl)phenoxy)methyl butyrate] | 61.9 | > 100 | 94.6 | > 100 | 199 (≈ 80.1 µg/mL) | < 10 | < 3 | better cytotoxic potential than Quercetin (II) | solubility comparable to QC-12 (IV)
CC(=O)OCOc1cc(-c2oc3cc(OCc4ccccc4)cc(O)c3c(=O)c2OCc2ccccc2)ccc1OCc1ccccc1 [Compound No. 2, (2-(Benzyloxy)-5-(3,7-bis(benzyloxy)-5-hydroxy-4-oxo-4H-chromen-2-yl)phenoxy)methyl acetate] |  | > 100 | > 100 | > 100 | 0.591 | > 100 |  |  | 
